{"source": "patent US10278395B2", "about": "“Functionalized environmentally benign nanoparticles” (North Carolina State University, priority 2013, dated 2019)", "key": {"[1]": {"tested_on": "Pseudomonas aeruginosa", "assay": "Qualitative antimicrobial test on P. aeruginosa (wet method, growth on plates)", "type": "cell-based", "details": "for antimicrobial effect (in words): 30 minutes incubation time", "procedure": "We performed quantitative antimicrobial tests on Gram-negative E. coli BL21 (DE3), a common human pathogen, and qualitative tests on Gram-negative P. aeruginosa, a human pathogen not susceptible to antimicrobial amines such as BPEI and […]. Therefore, any antimicrobial activity in the P. aeruginosa tests will predominantly stem from silver. The activity of each active agent was determined by comparing the number of colony forming units (CFU) of a reference plate with the CFU of a test plate as depicted in FIG. 20. The reduction of CFU on a test plate with antimicrobial agent is time dependent and concentration dependent. The schematic in FIG. 21 describes the wet method procedure that was followed for antimicrobial tests on both E. coli and P. aeruginosa. First, 200 μl of each active agent was placed into separate low retention centrifuge tubes. 100 μl of PBS buffer was added to each tube to baseline the ionic strength, and to adjust the pH value to 7. […] The samples were continuously vortexed. After the bacteria were exposed to the active agent for 1 minute, the survival rate of the bacteria was determined by plating 100 μl of each sample evenly distributed on Luria-Bertani agar plates. The procedure was repeated after 30 minutes of exposure time. After the plating procedure, the petri dishes were sealed and incubated upside-down for 48 h at 37° C."}, "[2]": {"tested_on": "E. coli BL21 (DE3)", "assay": "Quantitative antimicrobial test on E. coli (wet method, CFU reduction efficiency)", "type": "cell-based, Escherichia coli", "details": "for CFU reduction efficiency: 40 ppm", "procedure": "We performed quantitative antimicrobial tests on Gram-negative E. coli BL21 (DE3), a common human pathogen, and qualitative tests on Gram-negative P. aeruginosa, a human pathogen not susceptible to antimicrobial amines such as BPEI and […]. Therefore, any antimicrobial activity in the P. aeruginosa tests will predominantly stem from silver. The activity of each active agent was determined by comparing the number of colony forming units (CFU) of a reference plate with the CFU of a test plate as depicted in FIG. 20. The reduction of CFU on a test plate with antimicrobial agent is time dependent and concentration dependent. […] We quantified by the antimicrobial reduction efficiency “E” with the following equation The schematic in FIG. 21 describes the wet method procedure that was followed for antimicrobial tests on both E. coli and P. aeruginosa. First, 200 μl of each active agent was placed into separate low retention centrifuge tubes. 100 μl of PBS buffer was added to each tube to baseline the ionic strength, and to adjust the pH value to 7. […] The samples were continuously vortexed. After the bacteria were exposed to the active agent for 1 minute, the survival rate of the bacteria was determined by plating 100 μl of each sample evenly distributed on Luria-Bertani agar plates. The procedure was repeated after 30 minutes of exposure time. After the plating procedure, the petri dishes were sealed and incubated upside-down for 48 h at 37° C."}}}
{"molecule": "O=[N+]([O-])[O-].[Ag+]", "note": "[AgNO3, silver nitrate]", "values": [{"measurement": "Pseudomonas aeruginosa growth", "setting": "[1]; 1 min vortex time or contact time, 10 ppm", "result": "Yes"}, {"measurement": "Pseudomonas aeruginosa growth", "setting": "[1]; 1 min vortex time or contact time, 20 ppm", "result": "Yes"}, {"measurement": "antimicrobial effect (in words)", "setting": "[1]; 20 ppm Ag", "result": "no complete antimicrobial effect"}, {"measurement": "antimicrobial effect (in words)", "setting": "[1]; concentration not given", "result": "no complete antimicrobial effect"}, {"measurement": "Pseudomonas aeruginosa growth", "setting": "[1]; 30 min vortex time or contact time, 10 ppm", "result": "Yes"}, {"measurement": "Pseudomonas aeruginosa growth", "setting": "[1]; 30 min vortex time or contact time, 20 ppm", "result": "Yes"}, {"measurement": "Ag concentration at which antimicrobial effects were exhibited", "setting": "[2]", "result": 40, "unit": "ppm Ag"}, {"measurement": "CFU reduction efficiency", "setting": "[2]; 1 min vortex time", "result": 53.33, "unit": "%"}, {"measurement": "CFU reduction efficiency", "setting": "[2]; 30 min vortex time", "result": 96.19, "unit": "%"}]}
